Source: patent US7067545B1, “Remedies for spinocerebellar ataxia and compositions for treating spinocerebellar ataxia” (Meiji Seika Kaisha Ltd., priority 1998, dated 2006)
Like-named read-outs stand apart in the source and are kept apart here.

How the values were obtained:
[1] = test system: drug induced ataxia mice; test: Effect on drug induced (cytosine arabinoside) ataxia mice, open-field test; format: in vivo; details: for Falling Index (falling score/movement score) / Movement Score: 30 min after administration, observed 30 min, mean ± standard error
Description: Ataxia mice prepared by repeated administration of cytosine arabinoside 50 mg/kg into male mice, 1, 2 and 3-day old, respectively, were used at 6-7-week old in the experiments (Simada, M. et al. Arch. Neurol., 32, 555-559, 1975 and Matsui, K. et al. Exp. Anim., 32, 13-19, 1983).
Improving effects of drugs on ataxia were evaluated according to the methods of Yamamoto et al. (Yamamoto and Shimizu, Eur. J. Pharmacol. 1.66, 295-297, 1989) and Matsui et al. (Matsui et al. Eur. J. Pharmacol., 254, 295-297, 1994; Neurosci. Lett., 212, 115-118, 1996) as follows.
(§1) The open-field apparatus with a 70 cm square filed surrounded by a 15 cm high wall was used. The floor of the field was marked out into 49 equal grids (each grid 10 cm×10 cm). At 30 minutes after administration of drug intraperitoneally into mice, each mouse was placed in the field and was monitored for behavior for 30 minutes. Observed items were as follows. Numbers of crossing lines of the grids by mouse were set as “movement score” and numbers of slipping the hindlimbs were set as “falling score”. Each score was measured simultaneously. Ratio of both scores (falling score/movement score) is expressed as “falling index”.
Drugs used were D-serine ethyl ester, 10, 50 and 250 mg/kg, respectively, D-cycloserine, 2, 10 and 50 mg/kg, respectively, and L-serine ethyl ester, 250 mg/kg. Physiological saline was used as control. Each drug and saline were administered intraperitoneally.

[2] = mouse, in vivo, cited from earlier work
[3] = test system: genetic mutant ataxia mice, reeler mice; test: Effect on genetic mutant ataxia mice (reeler mice), open-field test; format: in vivo; details: 250 mg/kg i.p., mean ± standard error
Description: as §1
Genetic mutant ataxia mice, reeler mice (Heckroth, J. A. et al. J. Comp. Neurol., 279, 546-555, 1989 and Hamburgh, Dev. Biol., 8, 165-185, 1963) were purchased from Jackson Laboratory (Bar Harbor, Me., USA). Homozygotes were obtained by mating of heterozygote pairs. The homozygote male mice, 6-7 weeks old, were used for the experiments.
Experimental method for evaluation of ataxia was performed as same as in example 1. In the drug administered group, D-serine ethyl ester 250 mg/kg was administered intraperitoneally. For control group, physiological saline was administered.

[4] = 10 mg/kg i.p., listed as D-Cycloserine
[5] = 50 mg/kg i.p., listed as D-Cycloserine
[6] = 50 mg/kg i.p., listed as D-Serine Ethyl ester
[7] = 250 mg/kg i.p., listed as D-Serine Ethyl ester

## N[C@@H]1CON=C1O [D-cycloserine]
[1]; 2 mg/kg i.p.
  Falling Index (falling score/movement score): 0.80 ± 0.07
  Movement Score: 117 ± 54
[1]; 10 mg/kg i.p.
  Falling Index (falling score/movement score): Significant decrease
  Movement Score: no significant effect
[1]; [4]
  Falling Index (falling score/movement score): 0.69 ± 0.09
  Movement Score: 194 ± 71
[1]; 50 mg/kg i.p.
  Falling Index (falling score/movement score): Significant decrease
  Movement Score: no significant effect
[1]; [5]
  Falling Index (falling score/movement score): 0.62 ± 0.04
  Movement Score: 286 ± 98
[1]; below 50 mg/kg (i.p.) in mice
  improved action on ataxia: dose dependent manner
[2]; ip
  LD50: approx. 2,900 mg/kg
[2]; iv
  LD50: approx. 1,800 mg/kg
[2]; po
  LD50: approx. 5,300 mg/kg
[2]; sc
  LD50: approx. 2,800 mg/kg

## CCOC(=O)[C@H](N)CO [D-serine ethyl ester]
[1]; 10 mg/kg i.p.
  Falling Index (falling score/movement score): 0.88 ± 0.09
  Movement Score: 386 ± 113
[1]; 50 mg/kg i.p.
  Falling Index (falling score/movement score): Significant decrease
  Movement Score: no significant effect
[1]; [6]
  Falling Index (falling score/movement score): 0.66 ± 0.08
  Movement Score: 366 ± 96
[1]; 250 mg/kg i.p.
  Falling Index (falling score/movement score): Significant decrease
  Movement Score: no significant effect
[1]; [7]
  Falling Index (falling score/movement score): 0.56 ± 0.06
  Movement Score: 412 ± 99
[3]
  Falling Index (falling score/movement score): Improved effect on ataxia
  Movement Score: No effect
[3]; listed as D-Serine Ethyl ester
  Falling Index (falling score/movement score): 0.24 ± 0.05
  Movement Score: 232 ± 66

## CCOC(=O)[C@@H](N)CO [L-serine ethyl ester]
[1]; 250 mg/kg i.p.
  Falling Index (falling score/movement score): No improved action on ataxia
  Movement Score: 129 ± 27
[1]; 250 mg/kg i.p., listed as L-Serine Ethyl ester
  Falling Index (falling score/movement score): 0.80 ± 0.06
